Assay results as given in patent US7198804B2, “Crude drug composition for preventing and treating gastrointestinal dyskinetic diseases” (Helixir Co., Ltd., priority 2002, dated 2007).
Structures can show the parent of a compound that is named as a salt.

How the values were obtained:
[1] = test system: gastrointestinal motility; test: Gastrointestinal transit (GIT) of charcoal meal in mice; type: in vivo, ICR derived mice; details: for GIT: mean±S.E.M.
Protocol: Female ICR derived mice (Seoul National University) weighing 22±2 grams were used. All animals were maintained in a controlled environment with temperatures at 22° C.–24° C. and humidity at 60%–80% with 12 hours of light and dark cycles for at least one week prior to use. 9 groups of 8 ICR derived female mice were fasted with free access to water for 16 hours prior to testing.
For the estimation of the effect on gastrointestinal motility, 0.1 g of the brown powder of each formulation obtained in Example 1, was dissolved in 1 ml of 2% Tween 80 (Wako, Japan) and administrated orally to the mice.
Atropine sulfate (Sigma, USA) was used for the negative control in the experiment, which is known to induce smooth muscle relaxation. Mosapride citrate was administered at 20 mg/kg. Each crude drug composition of 6 formulations prepared in Example 1, was administered at 1.0 g/kg. At 60 minutes post dosing, the animals were given a suspension of 5% activated charcoal (Sigma, USA) in a 10% arabic gum (Sigma, USA) solution (0.3 ml/animal p.o.) and sacrificed 15 minutes later.
The intestine was removed and the length of the gut in cm (GL) as well as distance of charcoal movement from the pylorus to the beginning of the charcoal column in cm (CP), was measured. Gastrointestinal transit (GIT) has been calculated as below Formula 1. The mean GIT value of each group has been compared to that of the vehicle control. GIT(%)=(CP/GL)×100 Formula 1
Values were expressed as means±S.E.M. Students' t-test was used for the statistical analysis of the results of gastrointestinal transit. Probability values (p) less than 0.05 were considered to be significant.
PG202, prepared in Example 1, was administered into the mice orally at concentrations of 0.1 g/kg, 1.0 g/kg, and 5.0 g/kg. The control group was administered with the vehicle (2% Tween 80) at 10 ml/kg. At 60 minutes post dosing, the animals were given a suspension of 5% activated charcoal (Sigma, USA) in a 10% Arabic gum (Sigma, USA) solution (0.3 ml/animal p.o.) and sacrificed 15 minutes later and the gastrointestinal transit (GIT) was examined according to the Formula 1. Data have been expressed as means±S.E.M.*p<0.05.
PG202 was administrated orally at 1.0 g/kg to the test group, 2% Tween 80 (Wako, Japan) at 10 ml/kg to control group, Mosapride citrate at 20 mg/kg to positive control group, Atropine sulfate (Sigma, USA) at 100 mg/kg to negative control group. Data have been expressed as means±S.E.M.*p<0.05.
At 60 minutes post dosing, the animals were given a suspension of 5% activated charcoal (Sigma, USA) in a 10% arabic gum (Sigma, USA) solution (0.3 ml /animal p.o.) and sacrificed 15 minutes later. GIT (%) values were determined according to the Formula 1.

rodents = details: cited from earlier work

SMILES	decrease of GIT in comparison to the control group ([1]; 100 mg/kg p.o.) [%]	GIT ([1]; 100 mg/kg p.o., negative control) [%]	increase of GIT compared to the control ([1]; 20 mg/kg p.o.) [%]	GIT ([1]; 20 mg/kg p.o., positive control) [%]	incidence of hepatocellular adenoma and thyroid follicular cell adenoma (rodents)
CN1[C@@H]2CC[C@H]1CC(OC(=O)C(CO)c1ccccc1)C2.CN1[C@@H]2CC[C@H]1CC(OC(=O)C(CO)c1ccccc1)C2.O=S(=O)(O)O (some centres unmarked) [Atropine, Atropine sulfate]	35	35.4±3.4	–	–	–
CCOc1cc(N)c(Cl)cc1C(=O)NCC1CN(Cc2ccc(F)cc2)CCO1 (centres unmarked) [mosapride citrate]	–	–	21	63.7±5.2	increased
